Experimental data published in paper PMC7906020, “Trp-Containing Antibacterial Peptides Impair Quorum Sensing and Biofilm Development in Multidrug-Resistant Pseudomonas aeruginosa and Exhibit Synergistic Effects With Antibiotics” (Frontiers in Microbiology, 2021).

Assays:
MRPA0108 biofilms = assay: Confocal laser scanning microscopy of biofilms (LIVE/DEAD staining); format: cell-based, Pseudomonas aeruginosa; conditions: 24 h; for percentage of dead/live cells in biofilm: control 8.7%
Procedure: Biofilms of MRPA0108 were visualized by confocal microscopy. Mid-log growth-phase bacteria were diluted to 1 × 10^7 CFU/ml. […] LB liquid medium and erythromycin were used as negative and positive controls, respectively. After incubation, the supernatant was removed, and the slides were washed and stained in a dark environment for 30 min using a LIVE/DEAD BacLight^TM Bacterial Viability Kit (Invitrogen, Life Technologies, Shanghai, China). The slides were washed three times and imaged with a confocal laser scanning microscope (LSM 710, Carl Zeiss, Germany) with excitation/emission wavelengths of 480/500 and 490/635 nm for SYTO9 and propidium iodide (PI), respectively. SYTO9 was used to indicate live bacteria, and PI was used to mark dead bacteria.

[1] = tested on: MRPA0108 swarming motility; assay: Swarming motility assay; format: cell-based, Pseudomonas aeruginosa; conditions: erythromycin positive control, concentration not given; 24 h, 37°C; vs control
Procedure: The swarming motility of MRPA0108 was assessed as described by [O’May and Tufenkji (2011)], with slight modifications. Briefly, swarming agar medium (1% tryptone, 0.5% NaCl, and 0.5% agar) was prepared in the presence or absence of peptide at a final concentration of 1/4 × MIC. MRPA0108 cells from an overnight culture grown on LB agar plates were placed directly on the agar surface (center) with a sterile toothpick so that the motility within the semisolid agar could be evaluated. After 24 h of incubation at 37°C, the diameters of swarming motility were observed and measured. LB liquid medium and erythromycin were used as negative control and positive controls, respectively. All experiments were repeated three times.

[2] = tested on: pyocyanin production in MRPA0108; assay: Pyocyanin production assay; format: cell-based, Pseudomonas aeruginosa; conditions: peptide at 1/4 × MIC, 24 h; OD 520 nm; vs untreated control; triplicate
Procedure: The culture supernatant was obtained after centrifugation at 12,000×g for 10 min. (1) LasB elastase activity was measured using elastin-Congo red (ECR) as the substrate, as described by [Pattnaik et al. (2018)]. Briefly, 100 μl of the culture supernatant was added to 900 μl of ECR buffer (100 mM Tris-HCl, 1 mM CaCl2, pH 7.5) containing 10 mg of ECR and then incubated with shaking at 37°C for 18 h. Then, 100 μl of 0.12 M EDTA was added to stop the reaction. The insoluble ECR was removed by centrifugation, and the supernatant absorbance was measured at 495 nm. The optical density (OD) 495 nm/OD 600 nm represents the elastase activity. (2) LasA protease activity was measured as follows ([Pattnaik et al., 2018]): first, the culture supernatant was filtered to remove the bacterial cells, and then 150 μl of sterile-filtered supernatant was added to 2% azocasein (prepared in 50 mM Tris-HCl) and incubated for 4 h at 37°C. […] After centrifugation at 10,000 rpm for 10 min, 1 M NaOH was added to the supernatant, and the relative protease activity was measured at OD 440 nm. (3) The pyocyanin assay was based on the absorbance of excreted pyocyanin at 520 nm in an acidic solution ([Kong et al., 2005]). […] The OD 520 nm was measured to evaluate the change in pyocyanin content. […] The absorbance was measured at 420 nm. (5) The level of C4-HSL was quantified by GC-MS as previously described ([Guo et al., 2012]).

[3] = tested on: rhamnolipid production in MRPA0108; assay: Rhamnolipid production, orcinol method; format: cell-based, Pseudomonas aeruginosa; conditions: peptide at 1/4 × MIC, 24 h, absorbance 420 nm, vs control, triplicate
Procedure: (§1) The culture supernatant was obtained after centrifugation at 12,000×g for 10 min. (1) LasB elastase activity was measured using elastin-Congo red (ECR) as the substrate, as described by [Pattnaik et al. (2018)]. Briefly, 100 μl of the culture supernatant was added to 900 μl of ECR buffer (100 mM Tris-HCl, 1 mM CaCl2, pH 7.5) containing 10 mg of ECR and then incubated with shaking at 37°C for 18 h. Then, 100 μl of 0.12 M EDTA was added to stop the reaction. The insoluble ECR was removed by centrifugation, and the supernatant absorbance was measured at 495 nm. The optical density (OD) 495 nm/OD 600 nm represents the elastase activity. (2) LasA protease activity was measured as follows ([Pattnaik et al., 2018]): first, the culture supernatant was filtered to remove the bacterial cells, and then 150 μl of sterile-filtered supernatant was added to 2% azocasein (prepared in 50 mM Tris-HCl) and incubated for 4 h at 37°C. Trichloroacetic acid (TCA, 10%) was added to precipitate the undigested substrate. After centrifugation at 10,000 rpm for 10 min, 1 M NaOH was added to the supernatant, and the relative protease activity was measured at OD 440 nm. (3) The pyocyanin assay was based on the absorbance of excreted pyocyanin at 520 nm in an acidic solution ([Kong et al., 2005]). Three milliliters of culture supernatant were mixed with 2 ml of chloroform for 20 min, and then the pyocyanin from the chloroform phase was reextracted using 0.2 M HCl for 15 min to obtain a pink-colored pyocyanin solution. The OD 520 nm was measured to evaluate the change in pyocyanin content. (4) Rhamnolipid detection was carried out as previously described ([Wittgens et al., 2011]). Briefly, 500 μl of culture supernatant was mixed with 500 μl of ethyl acetate and vortexed vigorously for 15 s to extract rhamnolipid. After centrifugation at 10,000×g for 5 min at 4°C, the organic phase containing rhamnolipids was obtained and evaporated at room temperature overnight. The rhamnolipid extract dissolved in ultrapure water was mixed with orcinol reagent (0.19% orcinol in 53% H2SO4) and incubated at 80°C for 30 min. The absorbance was measured at 420 nm. (5) The level of C4-HSL was quantified by GC-MS as previously described ([Guo et al., 2012]).

[4] = tested on: LasB elastase of MRPA0108; assay: LasB elastase activity, elastin-Congo red method; format: cell-based, Pseudomonas aeruginosa; conditions: peptide at 1/4 × MIC, 24 h, 37°C; ECR substrate, OD495/OD600; vs control; triplicate
Procedure: as §1, with “The rhamnolipid extract dissolved in ultrapure water was mixed with orcinol reagent (0.19% orcinol in 53% H2SO4) and incubated at 80°C for 30 min.” left out

MRPA0108 = assay: Checkerboard assay (FICI) of peptides with antibiotics; format: cell-based, Pseudomonas aeruginosa; conditions: MRPA0108, 24 h 37°C, median of at least three experiments, synergy ≤ 0.5, additive 0.5-1, indifference 1-2
Procedure: The synergistic effect of peptides and antibiotics was evaluated using the checkerboard method, in which the fractional inhibitory concentration index (FICI) was used to analyze the type of interaction between compounds ([Berditsch et al., 2015]). A 100 μl inoculum of 10^5 CFU/ml planktonic bacteria was added to the respective wells of 96-well microtiter plates, and then serial dilutions of peptide and antibiotic at 100 μl volumes were added to each well and incubated at 37°C for 24 h. The OD 600 nm value was measured with a microplate plate reader (Varioskan Flash Microplate Reader, Thermo Fisher Scientific Co., Beijing) as an indicator of growth inhibition. The resulting checkerboard contained each combination of peptide and antibiotic in 9 doubly increasing concentrations, with wells containing the highest concentration of each antibiotic at opposite corners. The concentrations tested for every combination of peptide-antibiotic were their respective MICs. MH medium and the peptide/antibiotic combination served as negative and positive controls, respectively. The FICI is calculated as FICa plus FICb, where FICa is the MIC of the peptide in the presence of antibiotics/the MIC of the peptide alone, and FICb is the MIC of the antibiotic in the presence of peptide/the MIC of the antibiotic alone. Drug interactions were defined as follows: synergy, FICI ≤ 0.5; additive effect, 0.5 < FICI ≤ 1; and indifference, 1 < FICI ≤ 2 ([Hollander et al., 1998]; [Yoon et al., 2004]). The results were recorded in at least three independent experiments, and the median FICI values were used in the analysis.

[5] = cited from earlier work
Description: Supplement Table_1.docx, table 1: Table S1 Biological characteristics and antibacterial activities of the Trp-containing antimicrobial peptides (32) | column: Hemolysis (μM)

MRPA0108 strain = conditions: previous study, ref Han et al., 2020; cited from earlier work
Description: Supplement Table_1.docx, table 1: Table S1 Biological characteristics and antibacterial activities of the Trp-containing antimicrobial peptides (32) | column: MIC(μM)

Compound	percentage of dead/live cells in biofilm (MRPA0108 biofilms; erythromycin positive control, concentration not given)	reduction in swarming motility [1]	reduction of pyocyanin production [2]	inhibition of rhamnolipid production [3]	decrease of LasB elastase activity [4]	average biofilm thickness (MRPA0108 biofilms; after treatment with low concentrations of peptide (1 × MIC or 2 × MIC), 37°C, control biofilm 6 μm)	percentage of dead/live cells in biofilm (MRPA0108 biofilms; peptide at 1 × MIC, SYTO9/PI)	percentage of dead/live cells in biofilm (MRPA0108 biofilms; peptide at 2 × MIC, SYTO9/PI)	FICI in combination with ceftazidime (MRPA0108)	FICI in combination with levofloxacin (MRPA0108)	FICI in combination with piperacillin (MRPA0108)	Hemolysis [5]	MIC (MRPA0108 strain)
CC[C@H]1OC(=O)[C@H](C)[C@@H](O[C@H]2C[C@@](C)(OC)[C@@H](O)[C@H](C)O2)[C@H](C)[C@@H](O[C@@H]2O[C@H](C)C[C@H](N(C)C)[C@H]2O)[C@](C)(O)C[C@@H](C)C(=O)[C@H](C)[C@@H](O)[C@]1(C)O [erythromycin, reference compound]	68.9%	85%	–	–	–	–	–	–	–	–	–	–	–
IKKIWSKIKKLLK-NH2 [L5W]	–	–	69.4%	40.7%	24.1%	1.5–2.5 μm	21.4%	32.5%	0.23	0.62	0.37	> 500 µM	12.5 µM
